Earlier results in patent US11160765B2, “Compositions and methods of treating fungal infections of the nails” (KBR Incorporated, priority 2018, dated 2021).

System: Candida albicans

Compound	proteinase, phospholipase secretion, and dimorphism in Candida albicans
C=CCSSCC=C [diallyl disulphide (DADS0, diallyl disulphide]	significantly inhibit
C=CCSCC=C [diallyl sulphide (DAS), diallyl sulphide]	significantly inhibit
